Results reported in ChEMBL document CHEMBL1255480, “Characterization of DIM-1, an integron-encoded metallo-beta-lactamase from a Pseudomonas stutzeri clinical isolate in the Netherlands” (2010).
Converted amounts (≈) assume the structure as drawn.

Experiments:
Escherichia coli [1] = assay: Antimicrobial activity against Escherichia coli TOP10 harboring beta-lactamase DIM-1 by agar dilution method; assay type: functional
[2] = target: T1, Metallo-beta-lactamase (Pseudomonas stutzeri) (UniProt D5JGF6); assay: Ratio of Kcat to Km for Pseudomonas stutzeri beta-lactamase DIM-1by UV-spectrophotometry; design: unit not given here; details: Stutzerimonas stutzeri
T1 sequence (whole entry): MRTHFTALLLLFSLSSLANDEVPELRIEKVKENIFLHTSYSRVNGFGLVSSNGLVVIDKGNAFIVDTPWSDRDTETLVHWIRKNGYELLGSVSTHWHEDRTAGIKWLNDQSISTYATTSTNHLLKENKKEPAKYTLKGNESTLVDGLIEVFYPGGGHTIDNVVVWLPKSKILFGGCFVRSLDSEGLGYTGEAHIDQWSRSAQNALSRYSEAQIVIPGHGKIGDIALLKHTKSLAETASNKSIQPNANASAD

Escherichia coli [3] = assay: Antimicrobial activity against Escherichia coli TOP10 harboring beta-lactamase DIM-1 by agar dilution method in presence of beta-lactam inhibitor clavulanic acid; assay type: functional
Escherichia coli [4] = assay: Antimicrobial activity against Escherichia coli TOP10 by agar dilution method; assay type: functional
Stutzerimonas stutzeri [5] = assay: Antimicrobial activity against Pseudomonas stutzeri clinical isolate expressing beta-lactamase DIM-1 by agar dilution method in presence of beta-lactam inhibitor clavulanic acid; assay type: functional
Stutzerimonas stutzeri [6] = assay: Antimicrobial activity against Pseudomonas stutzeri clinical isolate expressing beta-lactamase DIM-1 by agar dilution method; assay type: functional
Escherichia coli [7] = assay: Antimicrobial activity against Escherichia coli TOP10 by agar dilution method in presence of beta-lactam inhibitor clavulanic acid; assay type: functional
Stutzerimonas stutzeri [8] = assay: Antimicrobial activity against Pseudomonas stutzeri clinical isolate expressing beta-lactamase DIM-1 by agar dilution method in presence of beta-lactam inhibitor Tazobactam; assay type: functional
Escherichia coli [9] = assay: Antimicrobial activity against Escherichia coli TOP10 harboring beta-lactamase DIM-1 by agar dilution method in presence of beta-lactam inhibitor Tazobactam; assay type: functional
Escherichia coli [10] = assay: Antimicrobial activity against Escherichia coli TOP10 by agar dilution method in presence of beta-lactam inhibitor Tazobactam; assay type: functional
[11] = substrate: C[C@@H](O)[C@H]1C(=O)N2C(C(=O)O)=C(SCCNC=N)C[C@H]12; assay: (§1) Activity of Pseudomonas stutzeri beta-lactamase DIM-1 by UV-spectrophotometry; details: Stutzerimonas stutzeri
[12] = substrate: C[C@@H](O)[C@H]1C(=O)N2C(C(=O)O)=C(S[C@@H]3CN[C@H](C(=O)N(C)C)C3)[C@H](C)[C@H]12; assay: as §1; details: Stutzerimonas stutzeri
[13] = substrate: CO/N=C(\C(=O)N[C@@H]1C(=O)N2C(C(=O)[O-])=C(C[N+]3(C)CCCC3)CS[C@H]12)c1csc(N)n1; assay: as §1; details: Stutzerimonas stutzeri
[14] = substrate: CO[C@@]1(NC(=O)Cc2cccs2)C(=O)N2C(C(=O)O)=C(COC(N)=O)CS[C@@H]21; assay: as §1; details: Stutzerimonas stutzeri
[15] = substrate: CC(=O)OCC1=C(C(=O)O)N2C(=O)[C@@H](NC(=O)Cc3cccs3)[C@H]2SC1; assay: as §1; details: Stutzerimonas stutzeri
[16] = substrate: CC1(C)S[C@@H]2[C@H](NC(=O)Cc3ccccc3)C(=O)N2[C@H]1C(=O)O; assay: as §1; details: Stutzerimonas stutzeri
[17] = substrate: CC1(C)S[C@@H]2[C@H](NC(=O)[C@H](N)c3ccccc3)C(=O)N2[C@H]1C(=O)O; assay: as §1; details: Stutzerimonas stutzeri
[18] = substrate: CC(C)(O/N=C(\C(=O)N[C@@H]1C(=O)N2C(C(=O)[O-])=C(C[n+]3ccccc3)CS[C@H]12)c1csc(N)n1)C(=O)O; assay: as §1; details: Stutzerimonas stutzeri
[19] = substrate: CC1(C)S[C@@H]2[C@H](NC(=O)[C@H](C(=O)O)c3ccsc3)C(=O)N2[C@H]1C(=O)O; assay: as §1; details: Stutzerimonas stutzeri
[20] = substrate: C[C@H]1[C@H](NC(=O)/C(=N\OC(C)(C)C(=O)O)c2csc(N)n2)C(=O)N1S(=O)(=O)O; assay: as §1; details: Stutzerimonas stutzeri
[21] = substrate: CO/N=C(\C(=O)N[C@@H]1C(=O)N2C(C(=O)O)=C(COC(C)=O)CS[C@H]12)c1csc(N)n1; assay: as §1; details: Stutzerimonas stutzeri

Molecule: CO/N=C(\C(=O)N[C@@H]1C(=O)N2C(C(=O)[O-])=C(C[N+]3(C)CCCC3)CS[C@H]12)c1csc(N)n1
- MIC (Escherichia coli [1]): 1 mg/L (≈ 2.08 µM)

Molecule: CC(=O)OCC1=C(C(=O)O)N2C(=O)[C@@H](NC(=O)Cc3cccs3)[C@H]2SC1
- Ratio [2]: 5000

Molecule: CC1(C)S[C@@H]2[C@H](NC(=O)Cc3ccccc3)C(=O)N2[C@H]1C(=O)O
- Ratio [2]: 2800

Molecule: CC1(C)S[C@@H]2[C@H](NC(=O)[C@H](N)c3ccccc3)C(=O)N2[C@H]1C(=O)O
- Ratio [2]: 180

Molecule: C[C@@H](O)[C@H]1C(=O)N2C(C(=O)O)=C(S[C@@H]3CN[C@H](C(=O)N(C)C)C3)[C@H](C)[C@H]12
- Ratio [2]: 200

Molecule: CC1(C)S[C@@H]2[C@H](NC(=O)[C@H](N)c3ccc(O)cc3)C(=O)N2[C@H]1C(=O)O [AMOXICILLIN]
- MIC (Escherichia coli [3]): > 512 mg/L
- MIC (Escherichia coli [4]): 4 mg/L (≈ 10.9 µM)
- MIC (Stutzerimonas stutzeri [5]): > 512 mg/L
- MIC (Stutzerimonas stutzeri [6]): > 512 mg/L
- MIC (Escherichia coli [7]): 4 mg/L
- MIC (Escherichia coli [1]): > 512 mg/L

Molecule: C[C@H]1[C@H](NC(=O)/C(=N\OC(C)(C)C(=O)O)c2csc(N)n2)C(=O)N1S(=O)(=O)O [AZTREONAM]
- MIC (Escherichia coli [1]): 0.25 mg/L (≈ 0.574 µM)

Molecule: CO/N=C(\C(=O)N[C@@H]1C(=O)N2C(C(=O)O)=C(COC(C)=O)CS[C@H]12)c1csc(N)n1 [CEFOTAXIME]
- Ratio [2]: 3000
- MIC (Escherichia coli [4]): 0.12 mg/L (≈ 0.263 µM)
- MIC (Stutzerimonas stutzeri [6]): 512 mg/L (≈ 1120 µM)
- MIC (Escherichia coli [1]): 256 mg/L (≈ 562 µM)

Molecule: CO[C@@]1(NC(=O)Cc2cccs2)C(=O)N2C(C(=O)O)=C(COC(N)=O)CS[C@@H]21 [CEFOXITIN]
- Ratio [2]: 400
- MIC (Escherichia coli [4]): 4 mg/L (≈ 9.36 µM)
- MIC (Stutzerimonas stutzeri [6]): 512 mg/L (≈ 1200 µM)
- MIC (Escherichia coli [1]): 512 mg/L (≈ 1200 µM)

Molecule: CC(C)(O/N=C(\C(=O)N[C@@H]1C(=O)N2C(C(=O)[O-])=C(C[n+]3ccccc3)CS[C@H]12)c1csc(N)n1)C(=O)O [CEFTAZIDIME]
- Ratio [2]: 60
- MIC (Escherichia coli [4]): 0.06 mg/L (≈ 0.11 µM)
- MIC (Stutzerimonas stutzeri [6]): 8 mg/L (≈ 14.6 µM)
- MIC (Escherichia coli [1]): 256 mg/L (≈ 468 µM)

Molecule: C[C@@H](O)[C@H]1C(=O)N2C(C(=O)O)=C(SCCNC=N)C[C@H]12 [IMIPENEM ANHYDROUS]
- Ratio [2]: 440
- MIC (Stutzerimonas stutzeri [6]): 64 mg/L (≈ 214 µM)
- MIC (Escherichia coli [1]): 2 mg/L (≈ 6.68 µM)

Molecule: CCN1CCN(C(=O)N[C@@H](C(=O)N[C@@H]2C(=O)N3[C@@H]2SC(C)(C)[C@@H]3C(=O)O)c2ccccc2)C(=O)C1=O [PIPERACILLIN]
- MIC (Stutzerimonas stutzeri [8]): 512 mg/L
- MIC (Escherichia coli [9]): 512 mg/L
- MIC (Escherichia coli [4]): 1 mg/L (≈ 1.93 µM)
- MIC (Stutzerimonas stutzeri [6]): > 512 mg/L
- MIC (Escherichia coli [10]): 1 mg/L
- MIC (Escherichia coli [1]): > 512 mg/L

Molecule: CC1(C)S[C@@H]2[C@H](NC(=O)[C@H](C(=O)O)c3ccsc3)C(=O)N2[C@H]1C(=O)O [TICARCILLIN]
- Ratio [2]: 15000
- MIC (Escherichia coli [3]): > 512 mg/L
- MIC (Escherichia coli [4]): 4 mg/L (≈ 10.4 µM)
- MIC (Stutzerimonas stutzeri [5]): > 512 mg/L
- MIC (Stutzerimonas stutzeri [6]): > 512 mg/L
- MIC (Escherichia coli [7]): 4 mg/L
- MIC (Escherichia coli [1]): > 512 mg/L

B1: Metallo-beta-lactamase (Pseudomonas stutzeri), D5JGF6 (protein)
chain: MRTHFTALLLLFSLSSLANDEVPELRIEKVKENIFLHTSYSRVNGFGLVSSNGLVVIDKGNAFIVDTPWSDRDTETLVHWIRKNGYELLGSVSTHWHEDRTAGIKWLNDQSISTYATTSTNHLLKENKKEPAKYTLKGNESTLVDGLIEVFYPGGGHTIDNVVVWLPKSKILFGGCFVRSLDSEGLGYTGEAHIDQWSRSAQNALSRYSEAQIVIPGHGKIGDIALLKHTKSLAETASNKSIQPNANASAD
- Km [11]: 80 µM
- kcat [11]: 35 s⁻¹
- Km [12]: 20 µM
- kcat [12]: 4 s⁻¹
- Km [13]: 220 µM
- kcat [13]: 3 s⁻¹
- Km [14]: 20 µM
- kcat [14]: 8 s⁻¹
- Km [15]: 6 µM
- kcat [15]: 30 s⁻¹
- Km [16]: 90 µM
- kcat [16]: 250 s⁻¹
- Km [17]: 110 µM
- kcat [17]: 20 s⁻¹
- Km [18]: 50 µM
- kcat [18]: 3 s⁻¹
- Km [19]: 80 µM
- kcat [19]: 250 s⁻¹
- kcat [20]: < 0.01 s⁻¹
- Km [21]: 3.5 µM
- kcat [21]: 10 s⁻¹
